Reference: the NIST ThermoML archive (doi:10.1021/je1012586)

How the values were obtained:
[1] = wn = mass fraction of the nth substance listed; conditions: for surface tension liquid-gas: Pendant drop shape; for viscosity / mass density: 101 kPa, Liquid; for viscosity: Capillary tube (Ostwald / Ubbelohde) method
[2] = refractive index (Na D-line) (dimensionless); wn = mass fraction of the nth substance listed; conditions: 101 kPa, Liquid

C1CNCCN1 [piperazine] + O
Conditions | mass density, [1] [kg/m3] | refractive index, [2] | surface tension liquid-gas, [1] [mN/m] | viscosity, [1] [mPa·s]
298.15 K, w1 = 0.0174 | 997.75 | 1.33796 | 70.97 | 0.87
298.15 K, w1 = 0.0345 | 998.52 | 1.34183 | 69.95 | 0.94
298.15 K, w1 = 0.0688 | 1000.18 | 1.34759 | 69.83 | 1.08
298.15 K, w1 = 0.1035 | 1002.23 | 1.35307 | 69.41 | 1.29
303.15 K, w1 = 0.0174 | 996.37 | 1.33706 | 70.09 | 0.78
303.15 K, w1 = 0.0345 | 997.08 | 1.34024 | 69.18 | 0.85
303.15 K, w1 = 0.0688 | 998.69 | 1.34608 | 68.99 | 0.96
303.15 K, w1 = 0.1035 | 1000.64 | 1.35203 | 68.37 | 1.18
308.15 K, w1 = 0.0174 | 994.74 | – | – | 0.71
308.15 K, w1 = 0.0345 | 995.43 | – | – | 0.75
308.15 K, w1 = 0.0688 | 996.97 | – | – | 0.86
308.15 K, w1 = 0.1035 | 998.84 | – | – | 1.04
313.15 K, w1 = 0.0174 | 992.91 | 1.33604 | 69.11 | 0.68
313.15 K, w1 = 0.0345 | 993.59 | 1.33892 | 68.21 | 0.69
313.15 K, w1 = 0.0688 | 995.07 | 1.34482 | 68.11 | 0.78
313.15 K, w1 = 0.1035 | 996.86 | 1.35071 | 67.44 | 0.9
318.15 K, w1 = 0.0174 | 990.9 | – | – | 0.59
318.15 K, w1 = 0.0345 | 991.56 | – | – | 0.63
318.15 K, w1 = 0.0688 | 992.99 | – | – | 0.71
318.15 K, w1 = 0.1035 | 994.73 | – | – | 0.84
323.15 K, w1 = 0.0174 | 988.72 | 1.33476 | 67.93 | 0.54
323.15 K, w1 = 0.0345 | 989.35 | 1.33759 | 67.29 | 0.57
323.15 K, w1 = 0.0688 | 990.74 | 1.34336 | 67.06 | 0.65
323.15 K, w1 = 0.1035 | 992.39 | 1.34957 | 66.45 | 0.78
328.15 K, w1 = 0.0174 | 986.37 | – | – | 0.5
328.15 K, w1 = 0.0345 | 986.98 | – | – | 0.52
328.15 K, w1 = 0.0688 | 988.33 | – | – | 0.58
328.15 K, w1 = 0.1035 | 989.92 | – | – | 0.68
333.15 K, w1 = 0.0174 | 983.83 | 1.33348 | 66.99 | 0.46
333.15 K, w1 = 0.0345 | 984.46 | 1.33577 | 66.48 | 0.48
333.15 K, w1 = 0.0688 | 985.77 | 1.34221 | 66.14 | 0.54
333.15 K, w1 = 0.1035 | 987.3 | 1.34829 | 65.31 | 0.62
